Where two headings read alike, the source gives them in different places. Starred links: 1 amine or outer side, 2 acyl side, 3 side chain; linkers in the order of their positions; H or OH if unused. Positions of bridges follow the written chain, without caps; N, C: chain ends. Non-standard residues stand in square brackets, D forms with d. Residues, ends and D or L forms follow the SMILES beside them. Chains are numbered I, II in the order given. Hexamethylenediamine = C(CCCN[*:2])CCN[*:1]; Dip = N[C@H](C(=O)O)C(c1ccccc1)c1ccccc1; Chg = N[C@H](C(=O)O)C1CCCCC1; NMeA = CN[C@@H](C)C(=O)O
Legend:
XIAP (NanoLuc-XIAP) = target: T1, XIAP (NanoLuc-XIAP) (Homo sapiens, UniProt P98170); assay: NanoBRET XIAP target engagement assay; type: binding; conditions: NanoBRET tracer displacement, read-out: apparent intracellular affinity to XIAP (EC50)
T1 construct: host or cells: BE(2)-C and KELLY human neuroblastoma cells
Experimental: To better understand the mechanisms by which these compounds target XIAP in high-risk neuroblastoma, binding interactions between the antagonists and XIAP were first determined in BE(2)-C and KELLY cells using a NanoBRET quantitative target engagement assay. […] As the BRET signal was not completely abolished even at saturating A4 concentrations, NMR was conducted to further examine the binding interaction between A4 and XIAP (Supplementary Fig. S2A and S2B).
FIGURE 3 Binding and degradation of XIAP by A4 is necessary for targeting high-risk neuroblastoma cells. […] BRET signal was measured at 2 hours after treatment using a Tecan Infinite 200 Pro equipped with NanoBRET dual-filters (donor 460 nm and acceptor 618 nm) and determined via the formula (BRET ratio = values at 618 nm/values at 460 nm). […] Cells were treated with increasing dose of A4 or BV6 and luminescence was measured continuously in real time for 2 hours. Luminescence values were normalized to DMSO vehicle control and degradation profiles were generated using GraphPad Prism. Values were expressed as mean ± SD of three independent experiments conducted in duplicates. […] BRET signal was measured every 5 minutes for 6 hours after treatment using a Tecan equipped with NanoBRET dual-filters (donor 460 nm and acceptor 618 nm) and determined via the formula (BRET ratio = values at 618 nm/values at 460 nm). […]

HS5 (bone marrow origin) = assay: RealTime-Glo MT cell viability assay, noncancerous normal cells; type: cell-based, Human
Experimental: (§1) Cell viability was measured in real time using RealTime-Glo MT Cell Viability Assay as according to manufacturer's instructions from Promega. Cells were seeded at 1 × 10^4 cells per well and treated with a range of doses of indicated antagonists, followed by continuous bioluminescence reading every 24 hours for 3 days using luminescent plate reader, Varioskan (SkanIT software). IC50 was determined using GraphPad Prism software.
(§2) To determine their efficacy in neuroblastoma, a panel of neuroblastoma cell lines including neuroblastoma patient-derived cell lines and noncancerous normal tissue-derived cell lines were treated with increasing doses of each antagonist (0–100 µmol/L), followed by real-time measurement of cell viability every 24 for 72 hours.
(§3) To evaluate this, noncancerous normal tissue-derived cell lines THLE3 and HS5 were utilized to evaluate toxicity and tolerability.

THLE3 (liver origin) = assay: as above; type: cell-based, Human
Experimental: as §1, §2, §3

KELLY = assay: RealTime-Glo MT cell viability assay; type: cell-based, Human
Experimental: as §1, §2

NLF = assay: RealTime-Glo MT cell viability assay; type: cell-based, Human
Experimental: as §1, §2

[1] = tested on: NBL01-1116 patient-derived neuroblastoma cells; assay: RealTime-Glo MT cell viability assay; type: cell-based, Human
Experimental: as §1, §2

T1 sequence (P98170 whole entry): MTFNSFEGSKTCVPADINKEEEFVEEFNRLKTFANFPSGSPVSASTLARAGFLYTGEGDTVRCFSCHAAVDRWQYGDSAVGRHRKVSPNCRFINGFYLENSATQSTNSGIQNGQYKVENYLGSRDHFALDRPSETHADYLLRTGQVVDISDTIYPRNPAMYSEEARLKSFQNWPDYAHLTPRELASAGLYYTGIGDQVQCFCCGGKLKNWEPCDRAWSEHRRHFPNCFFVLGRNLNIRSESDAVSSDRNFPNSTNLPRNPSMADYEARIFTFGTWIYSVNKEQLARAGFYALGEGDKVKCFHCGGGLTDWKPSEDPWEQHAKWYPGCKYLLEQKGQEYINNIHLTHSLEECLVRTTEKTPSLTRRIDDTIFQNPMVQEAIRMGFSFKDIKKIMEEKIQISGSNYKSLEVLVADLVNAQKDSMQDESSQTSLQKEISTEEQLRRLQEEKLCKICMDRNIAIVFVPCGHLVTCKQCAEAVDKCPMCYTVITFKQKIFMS

SMILES: CN[C@@H](C)C(=O)N[C@H](C(=O)N1CCC[C@H]1C(=O)N[C@H](C(=O)NCCCCCCNC(=O)[C@@H](NC(=O)[C@@H]1CCCN1C(=O)[C@@H](NC(=O)[C@H](C)NC)C1CCCCC1)C(c1ccccc1)c1ccccc1)C(c1ccccc1)c1ccccc1)C1CCCCC1 [BV6] (I: H-[NMeA][Chg]P[Dip] / II: H-[NMeA][Chg]P[Dip]; linker I:C-II:C via Hexamethylenediamine)
- EC50 (XIAP (NanoLuc-XIAP); BE(2)-C cells): 0.21 µM
- EC50 (XIAP (NanoLuc-XIAP); KELLY cells): 0.3 µM
- IC50 (HS5 (bone marrow origin); HS5, 24 hours): 6.1 µM
- IC50 (HS5 (bone marrow origin); HS5, 48 hours): 4.4 µM
- IC50 (HS5 (bone marrow origin); HS5, 72 hours): 3.6 µM
- IC50 (THLE3 (liver origin); THLE3, 24 hours): 11.3 µM
- IC50 (THLE3 (liver origin); THLE3, 48 hours): 6.8 µM
- IC50 (THLE3 (liver origin); THLE3, 72 hours): 5.2 µM
- IC50 (KELLY; 24 hours): 13.5 µM
- IC50 (KELLY; 48 hours): 12.9 µM
- IC50 (KELLY; 72 hours): 10.1 µM
- IC50 (NLF; 24 hours): 7.4 µM
- IC50 (NLF; 48 hours): 3.8 µM
- IC50 (NLF; 72 hours): 3.7 µM
- IC50 ([1]; NBL01-1116, 24 hours): 14.5 µM
- IC50 ([1]; NBL01-1116, 48 hours): 9.3 µM
- IC50 ([1]; NBL01-1116, 72 hours): 8.5 µM

From paper PMC10681007, “Targeted Degradation of XIAP is Sufficient and Specific to Induce Apoptosis in MYCN-overexpressing High-risk Neuroblastoma” (Cancer Research Communications, 2023)
